In one experiment the test system is rats. The experiment in a line: Visceral Hyperalgesia Testing (colorectal balloon distention following zymosan). It is filed as in vivo, rat. Particulars: 30 mg/kg i.p., 5 rats, repeated distentions of 40 mmHg. On the procedure: Method: Rats were chronically instrumented with EMG electrodes in the muscles of the anterior abdominal wall. Distention of an intracolonic balloon, using a barostat apparatus, evoked increases in the EMG recordings that are related to the pressure. Control responses are compared with repeat stimulation 4 hours after zymosan is administered to the colon (FIG. 1).

The target in another experiment is T1, delta opioid receptor (Rattus norvegicus, UniProt P33533).
T1 construct: from tissue; host or cells: forebrain of male Wistar rats
T1 sequence (P33533 whole entry): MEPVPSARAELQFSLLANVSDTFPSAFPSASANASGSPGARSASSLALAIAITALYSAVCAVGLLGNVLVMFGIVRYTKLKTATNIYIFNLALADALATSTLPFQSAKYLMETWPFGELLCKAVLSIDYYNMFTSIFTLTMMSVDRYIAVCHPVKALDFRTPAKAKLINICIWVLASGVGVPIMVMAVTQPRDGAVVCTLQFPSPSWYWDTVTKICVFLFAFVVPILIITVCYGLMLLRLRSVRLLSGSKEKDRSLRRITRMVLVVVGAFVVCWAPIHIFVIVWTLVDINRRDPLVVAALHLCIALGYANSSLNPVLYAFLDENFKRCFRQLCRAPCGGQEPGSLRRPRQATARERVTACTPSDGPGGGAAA
The experiment in a line: Rat Brain Delta Opioid Receptor Binding Assay-Version 1a ([3H]naltrindole). Particulars: rat forebrain membranes, 0.1 nM [3H]naltrindole; margin of error 10-20%; read-out: r Ki δ Ver. 1a. On the procedure: Male, Wistar rats (150-250 g, VAF, Charles River, Kingston, N.Y.) were killed by cervical dislocation, and their brains removed and placed immediately in ice-cold Tris HCl buffer (50 mM, pH 7.4). The forebrains were separated from the remainder of the brain by a coronal transection, beginning dorsally at the colliculi and passing ventrally through the midbrain-pontine junction. After dissection, the forebrains were homogenized in Tris buffer in a Teflon®-glass homogenizer. The homogenate was diluted to a concentration of 1 g of forebrain tissue per 80 mL Tris and centrifuged at 39,000×g for 10 min. The pellet was resuspended in the same volume of Tris buffer containing 5 mM MgCl2 with several brief pulses from a Polytron homogenizer. This particulate preparation was used for the delta opioid binding assay. Following incubation with 0.1 nM of the delta selective ligand [^3H]naltrindole at 25° C. for 2.5 h in a 96-well plate with total 1 mL, the plate contents were filtered through Wallac filtermat B sheets on a Tomtec 96-well harvester. The filters were rinsed three times with 2 mL of 10 mM HEPES (pH 7.4), and dried in a microwave oven. To each sample area, Betaplate Scint scintillation fluid (LKB) was added and the resulting radioactivity quantified on a LKB (Wallac) 1205 BetaPlate liquid scintillation counter. Kd and Ki values were calculated using the GraphPad PRISM data analysis program.

Take `COc1ccc(CN(C(=O)[C@@H](N)Cc2c(C)cc(C(N)=O)cc2C)[C@@H](C)c2nc(-c3ccccc3)c[nH]2)cc1C(=O)O` [Cpd 18]: the “hyperalgesic response to colorectal balloon distention following zymosan” value in the experiment with rats was “blocked the hyperalgesic response”. The Ki is the dissociation constant of the complex between target and ligand, obtained from inhibition or displacement. On to `COC(=O)c1ccc(CN(C(=O)[C@@H](N)Cc2c(C)cc(C(N)=O)cc2C)[C@@H](C)c2nc(-c3ccccc3)c[nH]2)o1` [Cpd 257], for which the Ki on delta opioid receptor was found to be 14 nM. Consider `COC(=O)c1ccc(CN(C(=O)[C@@H](N)Cc2ccc(C(N)=O)cc2)[C@@H](C)c2nc(-c3ccccc3)c[nH]2)o1` [Cpd 303], for which the Ki on delta opioid receptor worked out at 24.5 nM. Consider `Cc1cc(O)cc(C)c1C[C@H](N)C(=O)N(Cc1cccc(C(=O)O)c1)[C@@H](C)c1nc(-c2ccccc2)c[nH]1` [Cpd 48], for which the Ki on delta opioid receptor stood at 0.24 nM.

(Values after patent US10213415B2, “Compounds as opioid receptor modulators” (JANSSEN PHARMACEUTICA NV, priority 2004, dated 2019).)
